In PubChem BioAssay (NCI) one finds GI50 and TGI data, which are given here for seven molecules.

Several values for one entry are separate records, joined by “and”; a condition that tells them apart may be missing. Equal values may be shown once.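 96-well plates; 48 h exposure; 5 concentrations. Endpoints by linear interpolation between flanking doses. Not reached: highest tested concentration assigned. GI50 marks 50% less growth. TGI is the concentration that stops growth completely.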 Bounds are passed on as bounds.

Some test systems named below: RXF 393 renal; 786-0 renal; SK-OV-3 ovarian; MOLT-4 leukemia; HCT-15 colon; NCI-H460 lung; EKVX NSCLC; RPMI-8226 leukemia; SK-MEL-28 melanoma; SK-MEL-5 melanoma.
Holding throughout (assay): growth of human tumour cells (NCI), 48 h

With `O=[n+]1c(CBr)c(CBr)n([O-])c2ccccc21`, the GI50 in the experiment on RXF 393 renal is 4.66 µM; in the experiment with 786-0 renal, 11.9 µM; in the experiment on SK-OV-3 ovarian, 24.9 µM; with MOLT-4 leukemia, 3.62 µM; in the experiment with HCT-15 colon it was 1.82 µM; in the experiment on NCI-H460 lung, 16.9 µM. Also, the GI50 is 15.3 µM in the experiment with EKVX NSCLC, 2.73 µM with RPMI-8226 leukemia, 14.6 µM with SK-MEL-28 melanoma and 15.9 µM in the experiment with SK-MEL-5 melanoma. Besides, the TGI with RXF 393 renal is 16.9 µM; in the experiment with 786-0 renal it was 25.7 µM; with SK-OV-3 ovarian, more than 100 µM; with MOLT-4 leukemia, 14.7 µM; in the experiment on HCT-15 colon, 3.48 µM; in the experiment on NCI-H460 lung it was 34.6 µM. The TGI is 29 µM in the experiment on EKVX NSCLC, 8.39 µM in the experiment on RPMI-8226 leukemia, 28.1 µM in the experiment with SK-MEL-28 melanoma and 29.5 µM in the experiment on SK-MEL-5 melanoma.
As for `Fc1ccc(-c2nn(-c3ccccc3)cc2-c2nc3ccccc3o2)cc1`, the GI50 was 31.6 µM in the experiment with RXF 393 renal; 15 µM with 786-0 renal; 8.46 µM in the experiment with SK-OV-3 ovarian; 3.62 µM in the experiment on MOLT-4 leukemia; 1.83 µM in the experiment with HCT-15 colon; 2.84 µM in the experiment with NCI-H460 lung. Besides, the GI50 with EKVX NSCLC is 5.29 µM; in the experiment on RPMI-8226 leukemia it was 1.05 µM; in the experiment with SK-MEL-28 melanoma, 13.4 µM; in the experiment with SK-MEL-5 melanoma, 5.72 µM. For the same molecule, the TGI is more than 100 µM in the experiment on RXF 393 renal; more than 100 µM with 786-0 renal; more than 100 µM in the experiment on SK-OV-3 ovarian; more than 100 µM in the experiment with MOLT-4 leukemia; 39 µM in the experiment on HCT-15 colon; 9.95 µM in the experiment with NCI-H460 lung. Moreover, the TGI came out at 90.6 µM in the experiment on EKVX NSCLC, 9.3 µM in the experiment on RPMI-8226 leukemia, 39.4 µM with SK-MEL-28 melanoma and 19.3 µM in the experiment on SK-MEL-5 melanoma.
Take `O=C(/C=C(\[O-])c1ccccc1)CCCCCCC(=O)/C=C(\[O-])c1ccccc1.O=C(/C=C(\[O-])c1ccccc1)CCCCCCC(=O)/C=C(\[O-])c1ccccc1.O=C(/C=C(\[O-])c1ccccc1)CCCCCCC(=O)/C=C(\[O-])c1ccccc1.[La+3].[La+3]`: the GI50 in the experiment on RXF 393 renal, with 786-0 renal, with SK-OV-3 ovarian, in the experiment with MOLT-4 leukemia, in the experiment on HCT-15 colon and with NCI-H460 lung was more than 50 µM in each case. The GI50 in the experiment on EKVX NSCLC, in the experiment with RPMI-8226 leukemia, with SK-MEL-28 melanoma and in the experiment with SK-MEL-5 melanoma was more than 50 µM throughout. Besides, the TGI with RXF 393 renal, in the experiment with 786-0 renal, in the experiment with SK-OV-3 ovarian, with MOLT-4 leukemia, in the experiment on HCT-15 colon and in the experiment with NCI-H460 lung was more than 50 µM each time. For the same molecule, the TGI in the experiment on EKVX NSCLC, with RPMI-8226 leukemia, in the experiment on SK-MEL-28 melanoma and in the experiment on SK-MEL-5 melanoma was more than 50 µM in each case.
As to `O=c1c(Cl)c(Cl)cnn1-c1ccccc1`, the TGI is 4.21 µM and 5.38 µM in the experiment on RXF 393 renal; 11.1 µM and 12.1 µM with 786-0 renal; 21.2 µM and 10.6 µM with SK-OV-3 ovarian; 7.19 µM and 4.14 µM in the experiment on MOLT-4 leukemia; 3.51 µM and 5.38 µM in the experiment on HCT-15 colon; 10.3 µM and 8.61 µM with NCI-H460 lung. In addition, the TGI was 10.5 µM and 33.4 µM in the experiment on EKVX NSCLC; > 38.7 µM and 27 µM in the experiment on RPMI-8226 leukemia; 6.54 µM and 7.29 µM in the experiment with SK-MEL-28 melanoma; 5.66 µM and 14.2 µM in the experiment on SK-MEL-5 melanoma. The GI50 with SK-OV-3 ovarian was 8.36 µM and 3.44 µM; with EKVX NSCLC, 5.44 µM and 15.4 µM; with SK-MEL-5 melanoma, 2.42 µM and 7.82 µM.
Consider `COc1cccc(-c2nn(-c3ccccc3)cc2-c2ccnc(NCCCNS(=O)(=O)c3cccc(F)c3)c2)c1`, for which the GI50 is 4.18 µM in the experiment on RXF 393 renal; 4.01 µM with 786-0 renal; 3.18 µM in the experiment on SK-OV-3 ovarian; 2.64 µM in the experiment on MOLT-4 leukemia; 2.89 µM in the experiment on HCT-15 colon; 4.93 µM with NCI-H460 lung. Also, the GI50 with EKVX NSCLC was 2.79 µM; in the experiment on RPMI-8226 leukemia, 2.91 µM; in the experiment on SK-MEL-28 melanoma, 6.82 µM; in the experiment with SK-MEL-5 melanoma it was 1.86 µM. In addition, the TGI in the experiment on RXF 393 renal was more than 100 µM; in the experiment on 786-0 renal, more than 100 µM; in the experiment with SK-OV-3 ovarian, more than 100 µM; in the experiment on MOLT-4 leukemia, 8 µM; in the experiment with HCT-15 colon, more than 100 µM; in the experiment with NCI-H460 lung, more than 100 µM. For the same molecule, the TGI in the experiment with EKVX NSCLC was more than 100 µM; in the experiment with RPMI-8226 leukemia it was 9.92 µM; in the experiment with SK-MEL-28 melanoma, more than 100 µM; in the experiment with SK-MEL-5 melanoma it was 3.77 µM.
Turning to `O=C1Oc2cc3c(c4cccc1c24)OCN(c1ccc(Cl)cc1)C3`, the TGI is more than 84.2 µM in the experiment on RXF 393 renal; 34.5 µM in the experiment on 786-0 renal; more than 100 µM in the experiment on SK-OV-3 ovarian; 51.4 µM in the experiment on MOLT-4 leukemia; more than 64.7 µM in the experiment on HCT-15 colon; more than 100 µM in the experiment with NCI-H460 lung. For the same molecule, the TGI in the experiment with EKVX NSCLC was more than 100 µM; with RPMI-8226 leukemia, 42.1 µM; in the experiment with SK-MEL-28 melanoma it was more than 93.6 µM; in the experiment with SK-MEL-5 melanoma it was more than 100 µM.
For the molecule `OCCNCO`, the TGI in the experiment on RXF 393 renal, in the experiment with 786-0 renal, in the experiment with SK-OV-3 ovarian, in the experiment with MOLT-4 leukemia, in the experiment on HCT-15 colon and in the experiment with NCI-H460 lung was more than 100 µM in each case. The TGI in the experiment with EKVX NSCLC, in the experiment on RPMI-8226 leukemia, with SK-MEL-28 melanoma and in the experiment on SK-MEL-5 melanoma was more than 100 µM in each case.
